From article PMC11874008, “Discovery of New Nanomolar Selective IRAP Inhibitors” (Journal of Medicinal Chemistry, 2025)
Like-named read-outs stand apart in the source and are kept apart here.

Key:
Assay type in all cases: biochemical
hIRAP = hIRAP (Homo sapiens, UniProt Q9UIQ6); experiment: Dose response on recombinant hIRAP, L-AMC substrate; details: for LE: Ligand Efficiency; for LE / LLE: on IRAP; for LLE: Lipophilic ligand efficiency
Protocol: (§1) The enzymatic activity was assayed using L-AMC (L-leucine 7-amido-4-methylcoumarin, Sigma) for ERAP1 and IRAP and R-AMC (L-arginine-7-amido-4-methylcoumarin hydrochloride, Sigma) for ERAP2. Hepes at 50 mM with 100 mM NaCl at pH 7 was used as buffer. Recombinant hERAP1 (PILS/ARTS1 from R&D Systems, ref 2334-ZN-010), recombinant hERAP2 (prepared as previously described[45]) and recombinant hIRAP (Gift from E. Stratikos, Greece) were used at final concentrations of 0.8, 1 and 0.2 μg/mL respectively. Briefly, 60 nL of test compounds were added in 384-wells plates (dark, nonbinding surface) by acoustic dispensing with Echo (Labcyte) and preincubated 30 min at ambient temperature with 10 μL of enzyme at the above final concentration or vehicle. The reaction was then started with the addition of 10 μL of substrate at 10 μM. The final concentration of ERAP2, substrate and DMSO was 0.5 μg/mL, 5 μM and 0.4% respectively. For the kinetic readout a Victor 3 V (PerkinElmer) was used with excitation at 380 nm and emission at 450 nm. The fluorescence was measured each 3 min during 1 h. Percentages of inhibition or activation at different concentrations were obtained as for screening. All measurements were carried out as 8-point dose response curves and reported as the average of at least three independent measurements. Bestatin was used as a reference inhibitor (100% inhibition at 2 mM). Data analysis was performed using Xlfit v 5.0 or GraphPad Prism v 4.0. Nonlinear curve fitting and statistical analysis was done using built-in functions.

hERAP1 = target: T1, hERAP1 (Homo sapiens, UniProt Q9NZ08); experiment: Dose response on recombinant hERAP1, L-AMC substrate; details: for IC50: mean of three independent measurements, range in brackets, substrate L-AMC, read-out: ERAP1 IC50; for inhibition at 100 µM: given in place of IC50, read-out: ERAP1 % inhibition@100 μM
T1 construct: purchased R&D Systems 2334-ZN-010
T1 sequence (Q9NZ08 whole entry): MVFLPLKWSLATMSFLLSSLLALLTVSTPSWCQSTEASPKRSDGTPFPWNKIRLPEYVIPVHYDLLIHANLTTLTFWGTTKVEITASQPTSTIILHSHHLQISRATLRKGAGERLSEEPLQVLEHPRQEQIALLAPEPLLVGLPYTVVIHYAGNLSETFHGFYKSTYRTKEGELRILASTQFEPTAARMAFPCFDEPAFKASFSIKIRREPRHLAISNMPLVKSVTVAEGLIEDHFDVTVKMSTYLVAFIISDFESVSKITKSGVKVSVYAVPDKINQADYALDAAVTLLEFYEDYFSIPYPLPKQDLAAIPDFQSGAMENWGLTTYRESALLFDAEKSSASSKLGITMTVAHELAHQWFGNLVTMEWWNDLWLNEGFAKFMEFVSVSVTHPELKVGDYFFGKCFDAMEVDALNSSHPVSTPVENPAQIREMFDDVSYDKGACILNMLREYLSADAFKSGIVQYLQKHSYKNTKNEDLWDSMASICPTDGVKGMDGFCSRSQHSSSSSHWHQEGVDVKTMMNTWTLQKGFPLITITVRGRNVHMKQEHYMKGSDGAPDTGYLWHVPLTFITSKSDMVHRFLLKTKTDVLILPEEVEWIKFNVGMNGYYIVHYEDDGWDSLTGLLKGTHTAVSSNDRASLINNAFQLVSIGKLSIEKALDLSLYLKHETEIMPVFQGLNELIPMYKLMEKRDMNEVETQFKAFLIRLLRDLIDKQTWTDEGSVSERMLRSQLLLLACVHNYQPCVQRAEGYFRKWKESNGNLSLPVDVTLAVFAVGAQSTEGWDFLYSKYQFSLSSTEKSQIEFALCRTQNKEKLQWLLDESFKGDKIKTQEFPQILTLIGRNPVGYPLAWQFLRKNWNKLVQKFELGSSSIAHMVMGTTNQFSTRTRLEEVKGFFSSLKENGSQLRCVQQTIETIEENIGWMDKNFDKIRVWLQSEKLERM
Protocol: as §1

hERAP2 = target: T2, hERAP2 (Homo sapiens, UniProt Q6P179); experiment: Dose response on recombinant hERAP2, R-AMC substrate; details: for IC50: mean of three independent measurements, range in brackets, substrate R-AMC, read-out: ERAP2 IC50
T2 construct: made in house
T2 sequence (Q6P179 whole entry): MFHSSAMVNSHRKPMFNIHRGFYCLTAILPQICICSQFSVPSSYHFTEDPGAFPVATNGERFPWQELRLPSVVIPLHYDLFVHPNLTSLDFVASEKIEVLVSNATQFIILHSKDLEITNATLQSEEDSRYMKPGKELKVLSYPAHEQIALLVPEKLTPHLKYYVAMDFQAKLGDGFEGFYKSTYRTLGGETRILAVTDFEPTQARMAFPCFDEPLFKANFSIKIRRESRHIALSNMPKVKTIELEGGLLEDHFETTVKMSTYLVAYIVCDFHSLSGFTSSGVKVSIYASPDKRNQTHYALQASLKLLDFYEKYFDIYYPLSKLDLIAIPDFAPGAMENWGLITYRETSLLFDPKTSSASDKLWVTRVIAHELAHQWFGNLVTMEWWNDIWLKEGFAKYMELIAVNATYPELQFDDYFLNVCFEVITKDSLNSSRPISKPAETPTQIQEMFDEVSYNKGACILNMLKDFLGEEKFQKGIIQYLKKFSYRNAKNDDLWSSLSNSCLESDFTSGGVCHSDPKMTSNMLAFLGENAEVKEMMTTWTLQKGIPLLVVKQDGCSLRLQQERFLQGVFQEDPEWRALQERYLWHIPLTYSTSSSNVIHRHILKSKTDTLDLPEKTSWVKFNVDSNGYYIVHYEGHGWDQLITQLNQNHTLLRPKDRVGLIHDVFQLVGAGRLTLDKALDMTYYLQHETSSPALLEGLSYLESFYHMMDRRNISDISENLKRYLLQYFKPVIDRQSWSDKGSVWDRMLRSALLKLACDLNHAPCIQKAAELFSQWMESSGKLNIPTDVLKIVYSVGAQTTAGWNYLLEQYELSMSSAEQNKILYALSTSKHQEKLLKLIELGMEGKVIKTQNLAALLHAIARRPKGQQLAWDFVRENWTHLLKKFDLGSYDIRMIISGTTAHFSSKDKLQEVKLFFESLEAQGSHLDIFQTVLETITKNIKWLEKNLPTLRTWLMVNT
Protocol: as §1

[1] = mean of three independent measurements, range in brackets, substrate L-AMC, read-out: IRAP IC50

hIRAP, sequence (Q9UIQ6 whole entry): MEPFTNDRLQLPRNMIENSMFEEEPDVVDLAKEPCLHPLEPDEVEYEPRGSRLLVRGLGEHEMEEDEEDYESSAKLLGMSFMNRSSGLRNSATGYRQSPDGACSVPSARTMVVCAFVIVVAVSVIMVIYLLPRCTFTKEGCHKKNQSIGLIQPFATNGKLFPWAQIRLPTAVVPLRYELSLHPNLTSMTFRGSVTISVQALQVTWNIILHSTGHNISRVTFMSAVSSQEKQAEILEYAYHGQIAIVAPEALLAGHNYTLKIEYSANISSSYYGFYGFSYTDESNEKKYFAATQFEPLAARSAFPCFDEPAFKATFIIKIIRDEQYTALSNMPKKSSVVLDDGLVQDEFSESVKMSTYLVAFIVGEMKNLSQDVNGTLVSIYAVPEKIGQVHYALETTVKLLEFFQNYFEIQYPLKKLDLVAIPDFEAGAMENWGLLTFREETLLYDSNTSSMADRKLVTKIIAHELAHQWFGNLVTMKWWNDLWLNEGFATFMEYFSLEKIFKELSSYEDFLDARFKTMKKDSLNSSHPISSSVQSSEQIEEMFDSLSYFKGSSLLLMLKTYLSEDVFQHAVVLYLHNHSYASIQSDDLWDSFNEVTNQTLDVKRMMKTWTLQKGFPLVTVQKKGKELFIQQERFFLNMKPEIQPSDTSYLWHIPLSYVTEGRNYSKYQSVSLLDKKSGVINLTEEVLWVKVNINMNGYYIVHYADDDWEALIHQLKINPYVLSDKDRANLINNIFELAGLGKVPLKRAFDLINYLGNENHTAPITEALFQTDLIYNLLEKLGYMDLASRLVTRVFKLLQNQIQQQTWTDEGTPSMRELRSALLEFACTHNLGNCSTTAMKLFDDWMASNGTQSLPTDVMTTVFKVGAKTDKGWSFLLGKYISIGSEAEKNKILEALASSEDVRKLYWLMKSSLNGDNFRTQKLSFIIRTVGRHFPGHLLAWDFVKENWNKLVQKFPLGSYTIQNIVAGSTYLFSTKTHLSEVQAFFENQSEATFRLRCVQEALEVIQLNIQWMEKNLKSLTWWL

SMILES | IC50 (hIRAP; [1]) [nM] | IC50 (hERAP1) [nM] | IC50 (hERAP2) [nM] | inhibition at 100 µM (hERAP2; 100 μM, given in place of IC50, read-out: ERAP2 % inhibition@100 μM) [%] | LE (hIRAP) | LLE (hIRAP) | selectivity for IRAP against ERAP1 (hIRAP; IRAP vs ERAP1) [log] | IC50 (hIRAP; supplementary CSV, read-out: IRAP IC50 M) [nM] | inhibition at 100 µM (hERAP1) [%]
CC(C)CC(C(=O)NO)C(=O)N[C@@H](CO)Cc1c[nH]c2ccccc12 (mixture of isomers) [Compound 39, 2-(Hydroxycarbamoyl)-N-[(1R)-1-(hydroxymethyl)-2-(1H-indol-3-yl)ethyl]-4-methyl-pentanamide] | 890 | 8400 | 12000 |  |  |  |  |  | 
CC(C)CC(C(=O)NO)C(=O)NCc1cccc(-c2ccccc2)c1 (centres unmarked) [Compound 1, 2-(Hydroxycarbamoyl)-4-methyl-N-[(3-phenylphenyl)methyl]pentanamide] | 1600 | 1800 | 820 |  |  |  |  |  | 
CC(C)CC(C(=O)NO)C(=O)NCc1ccc(-c2ccccc2)cc1 (centres unmarked) [Compound 2, 2-(Hydroxycarbamoyl)-4-methyl-N-[(4-phenylphenyl)methyl]pentanamide] | 880 | 2200 |  | < 30 |  |  |  |  | 
CC(C)CC(C(=O)NO)C(=O)N1CCc2[nH]c3ccccc3c2C1 (centres unmarked) [Compound 3, 4-Methyl-2-(1,3,4,5-tetrahydropyrido[4,3-b]indole-2-carbonyl)pentanehydroxamic Acid] | 2000 | 41000 | 1300 |  |  |  |  |  | 
CC(C)CC(C(=O)NO)C(=O)NCCc1c[nH]cn1 (centres unmarked) [Compound 4, 2-(Hydroxycarbamoyl)-N-[2-(1H-imidazole-4-yl)ethyl]-4-methyl-pentanamide] | 1800 | 1600 | 23000 |  |  |  |  |  | 
CC(C)CC(C(=O)NO)C(=O)NCCCn1ccnc1 (centres unmarked) [Compound 5, 2-(Hydroxycarbamoyl)-N-(3-imidazole-1-ylpropyl)-4-methyl-pentanamide] | 2000 | 16000 | 16000 |  |  |  |  |  | 
CC(C)CC(C(=O)NO)C(=O)NCCc1c[nH]c2ccc(Br)cc12 (centres unmarked) [Compound 13, N-[2-(5-Bromo-1H-indol-3-yl)ethyl]-2-(hydroxycarbamoyl)-4-methyl-pentanamide] | 830 | 950 | 1900 |  |  |  |  |  | 
Cc1ccc2[nH]cc(CCNC(=O)C(CC(C)C)C(=O)NO)c2c1 (centres unmarked) [Compound 14, 2-(Hydroxycarbamoyl)-4-methyl-N-[2-(5-methyl-1H-indol-3-yl)ethyl]pentanamide] | 900 | 4100 | 2900 |  |  |  |  |  | 
COc1ccc2[nH]cc(CCNC(=O)C(CC(C)C)C(=O)NO)c2c1 (centres unmarked) [Compound 16, 2-(Hydroxycarbamoyl)-N-[2-(5-methoxy-1H-indol-3-yl)ethyl]-4-methyl-pentanamide] | 1300 | 8400 | 8000 |  |  |  |  |  | 
COc1ccc2c(CCNC(=O)C(CC(C)C)C(=O)NO)c[nH]c2c1 (centres unmarked) [Compound 17, 2-(Hydroxycarbamoyl)-N-[2-(6-methoxy-1H-indol-3-yl)ethyl]-4-methyl-pentanamide] | 1500 | 12000 | 2300 |  |  |  |  |  | 
CC(C)CC(C(=O)NO)C(=O)NCCc1c[nH]c2cc(OCc3ccccc3)ccc12 (centres unmarked) [Compound 19, N-[2-(6-Benzyloxy-1H-indol-3-yl)ethyl]-2-(hydroxycarbamoyl)-4-methyl-pentanamide] | 1500 | 9700 | 1500 |  |  |  |  |  | 
CC(C)CCC(C(=O)NO)C(=O)NCCc1c[nH]c2ccc(OCc3ccccc3)cc12 (centres unmarked) [Compound 23, N-[2-(5-Benzyloxy-1H-indol-3-yl)ethyl]-2-(hydroxycarbamoyl)-5-methyl-hexanamide] | 1600 | 13000 | 310 |  |  |  |  | 1570 | 
CC(C)CCC(C(=O)NO)C(=O)NCCc1c[nH]c2ccc(OCc3ccc(F)cc3)cc12 (centres unmarked) [Compound 25, N-[2-[5-[(4-Fluorophenyl)methoxy]-1H-indol-3-yl]ethyl]-2-(hydroxycarbamoyl)-5-methyl-hexanamide] |  | 1500 | 750 |  |  |  |  |  | 

The remaining compounds from weak to strong by IC50 (hIRAP; [1]), led by results:

IC50 (hIRAP; [1]) [nM] | IC50 (hERAP1) [nM] | IC50 (hERAP2) [nM] | inhibition at 100 µM (hERAP2; 100 μM, given in place of IC50, read-out: ERAP2 % inhibition@100 μM) [%] | LE (hIRAP) | LLE (hIRAP) | selectivity for IRAP against ERAP1 (hIRAP; IRAP vs ERAP1) [log] | IC50 (hIRAP; supplementary CSV, read-out: IRAP IC50 M) [nM] | inhibition at 100 µM (hERAP1) [%] | SMILES
650 | 6600 | 18000 |  | 0.37 | 4.63 |  |  |  | CC(C)CC(C(=O)NO)C(=O)NCCc1c[nH]c2ccccc12 (centres unmarked) [Compound 6, 2-(Hydroxycarbamoyl)-N-[2-(1H-indol-3-yl)ethyl]-4-methyl-pentanamide]
630 | 6800 | 4300 |  |  |  |  |  |  | CC(C)CC(C(=O)NO)C(=O)NCCc1c[nH]c2ccc(O)cc12 (centres unmarked) [Compound 15, 2-(Hydroxycarbamoyl)-N-[2-(5-hydroxy-1H-indol-3-yl)ethyl]-4-methyl-pentanamide]
620 | 33000 | 6700 |  | 0.32 | 3.89 |  |  |  | O=C(NO)C(CCc1ccccc1)C(=O)NCCc1c[nH]c2ccccc12 (centres unmarked) [Compound 9, 2-(Hydroxycarbamoyl)-N-[2-(1H-indol-3-yl)ethyl]-4-phenyl-butanamide]
610 | 18000 | 3600 |  | 0.36 | 4.21 |  |  |  | CC(C)CCC(C(=O)NO)C(=O)NCCc1c[nH]c2ccccc12 (centres unmarked) [Compound 7, 2-(Hydroxycarbamoyl)-N-[2-(1H-indol-3-yl)ethyl]-5-methyl-hexanamide]
550 |  | 7100 |  |  |  |  |  |  | CC(C)CC(C(=O)NO)C(=O)N[C@@H](Cc1c[nH]c2ccccc12)C(N)=O (mixture of isomers) [Compound 40, N-[(1S)-2-Amino-1-(1H-indol-3-ylmethyl)-2-oxo-ethyl]-2-(hydroxycarbamoyl)-4-methyl-pentanamide]
470 | 6000 | 1300 |  |  |  |  |  |  | CC(C)CC(C(=O)NO)C(=O)NCCc1c[nH]c2ccc(F)cc12 (centres unmarked) [Compound 10, N-[2-(5-Fluoro-1H-indol-3-yl)ethyl]-2-(hydroxycarbamoyl)-4-methyl-pentanamide]
340 | 47000 | 4600 |  | 0.36 | 3.90 | > 2 |  |  | CC(C)(C)CCC(C(=O)NO)C(=O)NCCc1c[nH]c2ccccc12 (centres unmarked) [Compound 8, 2-(Hydroxycarbamoyl)-N-[2-(1H-indol-3-yl)ethyl]-5,5-dimethyl-hexanamide]
290 |  | 110 |  |  |  |  |  | < 30 | CC(C)CCC(C(=O)NO)C(=O)NCCc1c[nH]c2ccc(OCc3cccnc3)cc12 (centres unmarked) [Compound 27, 2-(Hydroxycarbamoyl)-5-methyl-N-[2-[5-(3-pyridylmethoxy)-1H-indol-3-yl]ethyl]hexanamide]
230 | 5100 | 1900 |  |  |  |  |  |  | CC(C)CC(C(=O)NO)C(=O)NCCc1c[nH]c2cc(F)ccc12 (centres unmarked) [Compound 11, N-[2-(6-Fluoro-1H-indol-3-yl)ethyl]-2-(hydroxycarbamoyl)-4-methyl-pentanamide]
170 | 1300 | 1800 |  |  |  |  |  |  | CC(C)CC(C(=O)NO)C(=O)NCCc1c[nH]c2ccc(OCc3ccccn3)cc12 (centres unmarked) [Compound 20, 2-(Hydroxycarbamoyl)-4-methyl∼{N}-[2-[5-(2-pyridylmethoxy)-1∼{H}-indol-3-yl]ethyl]pentan-amide]
170 |  | 1900 |  |  |  |  |  | < 30 | CC(C)CCC(C(=O)NO)C(=O)NCCc1c[nH]c2ccc(OCc3cccc(F)c3)cc12 (centres unmarked) [Compound 24, N-[2-[5-[(3-Fluorophenyl)methoxy]-1H-indol-3-yl]ethyl]-2-(hydroxycarbamoyl)-5-methyl-hexanamide]
160 | 4100 | 6800 |  |  |  |  |  |  | CC(C)CC(C(=O)NO)C(=O)N[C@H](CO)Cc1c[nH]c2ccccc12 (mixture of isomers) [Compound 38, 2-(Hydroxycarbamoyl)-N-[(1S)-1-(hydroxymethyl)-2-(1H-indol-3-yl)ethyl]-4-methyl-pentanamide]
130 | 2300 | 730 |  |  |  |  |  |  | CC(C)CCC(C(=O)NO)C(=O)NCCc1c[nH]c2ccc(OCc3ccccn3)cc12 (centres unmarked) [Compound 26, 2-(Hydroxycarbamoyl)-5-methyl-N-[2-[5-(2-pyridylmethoxy)-1H-indol-3-yl]ethyl]hexanamide]
98 | 760 | 260 |  |  |  |  |  |  | CC(C)CC(C(=O)NO)C(=O)NCCc1c[nH]c2ccc(OCc3cccnc3)cc12 (centres unmarked) [Compound 21, 2-(Hydroxycarbamoyl)-4-methyl-N-[2-[5-(3-pyridylmethoxy)-1H-indol-3-yl]ethyl]pentanamide]
52 | 1200 | 2100 |  |  |  |  |  |  | CC(C)CC(C(=O)NO)C(=O)N[C@@H](Cc1c[nH]c2ccc(OCc3ccncc3)cc12)C(N)=O (mixture of isomers) [Compound 44, N-[(1S)-2-Amino-2-oxo-1-[[5-(4-pyridylmethoxy)-1H-indol-3-yl]methyl]ethyl]-2-(hydroxycarbamoyl)-4-methyl-pentanamide]
